In patent US9657033B2, “Tetrahydronaphthyridine and related bicyclic compounds for inhibition of RORγ activity and the treatment of disease” (Merck Sharp & Dohme Corp., priority 2012, dated 2017) one finds EC50 data, which are given here for 37 compounds.

Molecules are shown by their SMILES. Where a name gives a salt, the structure may show the parent alone.

Chain of RORγ-LBD (P51449 269-508): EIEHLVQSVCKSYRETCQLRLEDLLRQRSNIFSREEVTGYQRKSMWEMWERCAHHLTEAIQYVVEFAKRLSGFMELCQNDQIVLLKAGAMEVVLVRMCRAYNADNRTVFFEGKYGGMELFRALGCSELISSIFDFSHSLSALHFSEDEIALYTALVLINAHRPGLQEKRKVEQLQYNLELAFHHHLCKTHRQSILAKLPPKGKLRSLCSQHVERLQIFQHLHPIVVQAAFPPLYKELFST

This assay has as its target RORγ-LBD (Homo sapiens (Human), UniProt P51449). As to the kind of experiment: RORγ-Ligand Binding Domain (LBD) TR-FRET Assay Protocol II. Type of assay: biochemical. The settings on record: purified RORγ-LBD, SRC1 peptide, overnight at 4° C. Here is the method:
Part II—Procedures for RORγ-Ligand Binding Domain TR-FRET Assay Protocol II
HIS-tagged RORγ-LBD protein was expressed in SF9 cells using a baculovirus expression system. The RORγ-LBD protein was purified by […]. Separately, SF9 cells not expressing recombinant protein were lysed in TBS buffer (25 mM Tris, pH 8.0, 150 mM NaCl) under sonication. The lysate was added to the purified RORγ-LBD in a volume equivalent of 0.75 μL lysate (from 30,000 SF9 cells) per 75 femtomol of RORγ-LBD protein. The resulting mixture was diluted in assay buffer (50 mM Tris pH 7.0, 50 mM KCl, 1 mM EDTA, 0.1 mM DTT, 0.01% BSA) to obtain RORγ-LBD protein at a final concentration of 3 nM.
Compounds to be tested were injected to the assay plate using Acoustic Droplet Ejection technology by Echo 550 liquid handler (Labcyte, Calif.).
A stock of biotinylated-LXXLL peptide from coactivator SRC1 (Biotin-[…]) was prepared in assay buffer and added to each well (100 nM final concentration). A solution of Europium tagged anti-HIS antibody (1.25 nM final concentration) and APC-conjugated streptavidin (8 nM final concentration) were also added to each well.
The final assay mixture was incubated overnight at 4° C., and the fluorescence signal was measured on an Envision plate reader: (Excitation filter=340 nm; APC emission=665 nm; Europium emission=615 nm; dichroic mirror=D400/D630; delay time=100 μs, integration time=200 μs). The EC50 value for test compounds was calculated from the quotient of the fluorescence signal at 665 nm divided by the fluorescence signal at 615 nm
As for `O=C(Nc1cnc2c(c1)N(S(=O)(=O)c1cccc(C(F)(F)F)c1)CC(N1CCOC1=O)C2)c1c(Cl)cccc1Cl` (stereo in doubt) [Compound 98, (R)-2,6-dichloro-N-(7-(2-oxooxazolidin-3-yl)-5-((3-(trifluoromethyl)phenyl)sulfonyl)-5,6,7,8-tetrahydro-1,5-naphthyridin-3-yl)benzamide], the midpoint of the response, the EC50, lay at 17 nM.

In the case of `CC(=O)NC[C@H]1CN(S(=O)(=O)c2cccc(C3CC3)c2)c2cc(NC(=O)c3c(Cl)cccc3Cl)cnc2O1` [Compound 18, (S)-N-(3-(acetamidomethyl)-1-((3-cyclopropylphenyl)sulfonyl)-2,3-dihydro-1H-pyrido[2,3-b][1,4]oxazin-7-yl)-2,6-dichlorobenzamide], the 50% effective concentration (EC50) was 13 nM.

For `Cc1cccc(S(=O)(=O)N2C[C@H](C)Oc3ncc(NC(=O)C(C)C(F)(F)F)cc32)c1` (stereo partly shown) [Compound 30], the EC50 worked out at 111 nM.

`Cc1cccc(S(=O)(=O)N2C[C@H](C)Oc3ncc(NC(=O)C(C)c4ccccc4C)cc32)c1` (stereo partly shown) [Compound 31] displayed an EC50 of 57 nM.

As for `Cc1cccc(S(=O)(=O)N2C[C@H](C)Oc3ncc(NC(=O)C(C)c4ccc(F)cc4)cc32)c1` (stereo partly shown) [Compound 32], the concentration for a half-maximal effect (EC50) turned out to be 97 nM.

Turning to `CCC(C)C(=O)Nc1cnc2c(c1)N(S(=O)(=O)c1cccc(C)c1)C[C@H](C)O2` (stereo partly shown) [Compound 33], the EC50 came out at 152 nM.

The compound `Cc1cccc(S(=O)(=O)N2C[C@H](C)Oc3ncc(NC(=O)C(C)c4ccc(Cl)cc4)cc32)c1` (stereo partly shown) [Compound 34] returned an EC50 of 108 nM.

The compound `C[C@H]1CN(S(=O)(=O)c2cccc(C3CC3)c2)c2cc(NC(=O)c3c(Cl)cccc3Cl)cnc2O1` [Compound 35] returned a 50% effective concentration (EC50) of 7 nM.

In turn, `Cc1cccc(S(=O)(=O)N2C[C@H](NC(=O)OC(C)(C)C)Cc3ncc(NC(=O)c4c(Cl)cccc4Cl)cc32)c1` [Compound 39, (R)-tert-butyl (7-(2,6-dichlorobenzamido)-1-(m-tolylsulfonyl)-1,2,3,4-tetrahydro-1,5-naphthyridin-3-yl)carbamate] gave a concentration for a half-maximal effect (EC50) of 25 nM.

With `Cc1cccc(S(=O)(=O)N2C[C@H](N)Cc3ncc(NC(=O)c4c(Cl)cccc4Cl)cc32)c1` [Compound 40, (R)-N-(7-amino-5-(m-tolylsulfonyl)-5,6,7,8-tetrahydro-1,5-naphthyridin-3-yl)-2,6-dichlorobenzamide trifluoroacetic acid salt], the concentration giving a half-maximal response (EC50) was 18 nM.

For `CC(=O)N[C@@H]1Cc2ncc(NC(=O)c3c(Cl)cccc3Cl)cc2N(S(=O)(=O)c2cccc(C)c2)C1` [Compound 41, (R)-N-(7-acetamido-5-(m-tolylsulfonyl)-5,6,7,8-tetrahydro-1,5-naphthyridin-3-yl)-2,6-dichlorobenzamide], the EC50 amounted to 18 nM.

Turning to `COC(=O)N[C@@H]1Cc2ncc(NC(=O)c3c(Cl)cccc3Cl)cc2N(S(=O)(=O)c2cccc(C)c2)C1` [Compound 42, (R)-methyl (7-(2,6-dichlorobenzamido)-1-(m-tolylsulfonyl)-1,2,3,4-tetrahydro-1,5-naphthyridin-3-yl)carbamate], a half-maximal effect (EC50) was put at 25 nM.

The compound `CC(=O)NC[C@H]1CN(S(=O)(=O)c2cccc(C3CC3)c2)c2cc(NC(=O)c3c(Cl)cccc3Cl)cnc2O1` [Compound 43] gave a concentration giving a half-maximal response (EC50) of 24 nM.

Compound `CC(C)(C)OC(=O)N[C@@H]1Cc2ncc(NC(=O)c3c(Cl)cccc3Cl)cc2N(S(=O)(=O)c2cccc(Cl)c2)C1` [Compound 45] had an EC50 of 6 nM.

With `CC(=O)NC1Cc2ncc(NC(=O)c3c(Cl)cccc3Cl)cc2N(S(=O)(=O)c2cccc(Cl)c2)C1` (stereo not shown) [Compound 46], the EC50 came out at 72 nM.

Turning to `CC(C)OC(=O)N[C@H]1Cc2ncc(NC(=O)c3c(Cl)cccc3Cl)cc2N(S(=O)(=O)c2cccc(C(F)(F)F)c2)C1` [Compound 47], it took 36 nM to reach a half-maximal effect (EC50).

Consider `CN(C)C(=O)NC1Cc2ncc(NC(=O)c3c(Cl)cccc3Cl)cc2N(S(=O)(=O)c2cccc(C(F)(F)F)c2)C1` (stereo not shown) [Compound 48], for which the concentration for a half-maximal effect (EC50) was found to be 10 nM.

Turning to `Cc1nn(C(F)F)cc1S(=O)(=O)N1C[C@@H](NC(=O)C(F)(F)F)Cc2ncc(NC(=O)c3c(F)cccc3Cl)cc21` [Compound 49], a half-maximal response (EC50) required 12 nM.

`Cc1nn(C(F)F)cc1S(=O)(=O)N1C[C@H](NC(=O)C(F)(F)F)Cc2ncc(NC(=O)c3c(F)cccc3Cl)cc21` [Compound 50] registered a concentration giving a half-maximal response (EC50) of 31 nM.

Compound `C[C@H](N)C(=O)N[C@H]1Cc2ncc(NC(=O)c3c(Cl)cccc3Cl)cc2N(S(=O)(=O)c2cccc(C(F)(F)F)c2)C1` [Compound 51] had an EC50 of 852 nM.

For the compound `C[C@H](O)C(=O)N[C@H]1Cc2ncc(NC(=O)c3c(Cl)cccc3Cl)cc2N(S(=O)(=O)c2cccc(C(F)(F)F)c2)C1` [Compound 52], the EC50 is 74 nM.

Compound `N[C@H]1Cc2ncc(NC(=O)c3c(Cl)cccc3Cl)cc2N(S(=O)(=O)c2cccc(C(F)(F)F)c2)C1` [Compound 53] returned a concentration giving a half-maximal response (EC50) of 25 nM.

Regarding `CC(C)(C)OC(=O)N[C@H]1Cc2ncc(NC(=O)c3c(Cl)cccc3Cl)cc2N(S(=O)(=O)c2cccc(C(F)(F)F)c2)C1` [Compound 54], the concentration for a half-maximal effect (EC50) was determined as 17 nM.

The compound `C[C@H](N)C(=O)N[C@@H]1Cc2ncc(NC(=O)c3c(Cl)cccc3Cl)cc2N(S(=O)(=O)c2cccc(C(F)(F)F)c2)C1` [Compound 55] came in with an EC50 of 32 nM.

`C[C@H](O)C(=O)N[C@@H]1Cc2ncc(NC(=O)c3c(Cl)cccc3Cl)cc2N(S(=O)(=O)c2cccc(C(F)(F)F)c2)C1` [Compound 56] gave an EC50 of 132 nM.

`N[C@H]1Cc2ncc(NC(=O)c3c(Cl)cccc3Cl)cc2N(S(=O)(=O)c2cccc(C(F)(F)F)c2)C1` [Compound 57] came in with an EC50 of 24 nM.

`CC(C)OC(=O)N[C@@H]1Cc2ncc(NC(=O)c3c(Cl)cccc3Cl)cc2N(S(=O)(=O)c2cccc(C(F)(F)F)c2)C1` [Compound 58] yielded an EC50 of 13 nM.

`CC(C)(C)OC(=O)N[C@@H]1Cc2ncc(NC(=O)c3c(Cl)cccc3Cl)cc2N(S(=O)(=O)c2cccc(C(F)(F)F)c2)C1` [Compound 59] showed an EC50 of 24 nM.

With `N[C@H](CO)C(=O)NC1Cc2ncc(NC(=O)c3c(Cl)cccc3Cl)cc2N(S(=O)(=O)c2cccc(C(F)(F)F)c2)C1` (stereo partly shown) [Compound 60], the EC50 was determined as 23 nM.

The compound `CCOC(=O)N[C@H]1Cc2ncc(NC(=O)c3c(Cl)cccc3Cl)cc2N(S(=O)(=O)c2cccc(C(F)(F)F)c2)C1` [Compound 63] registered an EC50 of 26 nM.

`CCOC(=O)N[C@@H]1Cc2ncc(NC(=O)c3c(Cl)cccc3Cl)cc2N(S(=O)(=O)c2cccc(C(F)(F)F)c2)C1` [Compound 64] displayed an EC50 of 18 nM.

`Cc1nn(C(F)F)cc1S(=O)(=O)N1C[C@@H](NC(=O)OC(C)C)Cc2ncc(NC(=O)c3c(F)cccc3Cl)cc21` [Compound 65]: the EC50 came out at 9 nM.

Turning to `Cc1nn(C(F)F)cc1S(=O)(=O)N1C[C@H](NC(=O)OC(C)C)Cc2ncc(NC(=O)c3c(F)cccc3Cl)cc21` [Compound 66], the EC50 was found to be 204 nM.

In the case of `Cc1cccc(S(=O)(=O)N2C[C@H](NC(=O)[C@H](C)O)Cc3ncc(NC(=O)c4c(Cl)cccc4Cl)cc32)c1` [Compound 67], the 50% effective concentration (EC50) is 23 nM.

Compound `CC(=O)NC1Cc2ncc(NC(=O)c3c(Cl)cccc3Cl)cc2N(S(=O)(=O)c2cccc(C3CC3)c2)C1` (stereo not shown) [Compound 68] had an EC50 of 25 nM.

On to `CC(C)(C)OC(=O)NC1Cc2ncc(NC(=O)c3c(Cl)cccc3Cl)cc2N(S(=O)(=O)c2cccc(C3CC3)c2)C1` (stereo not shown) [Compound 69], for which the EC50 worked out at 13 nM.

`NC1Cc2ncc(NC(=O)c3c(Cl)cccc3Cl)cc2N(S(=O)(=O)c2cccc(C3CC3)c2)C1` (stereo not shown) [Compound 70] came in with an EC50 of 38 nM.
